In ChEMBL document CHEMBL1159112, “Synthesis, biological evaluation, and molecular modeling of berberine derivatives as potent acetylcholinesterase inhibitors” (Bioorg Med Chem, 2010):

What was measured:
[1] = molecular target: T1, Acetylcholinesterase (Electrophorus electricus, UniProt O42275); assay: Inhibition of electric eel AChE by modified Ellman method
[2] = Selectivity for electric eel AChE over horse serum BChE
[3] = molecular target: Cholinesterase (Equus caballus, UniProt P81908)
Description: Inhibition of horse serum BChE by Ellman's method

[4] = molecular target: T1, Acetylcholinesterase; assay: Inhibition of electric eel AChE by enzyme kinetics assay

T1 sequence (O42275 whole entry): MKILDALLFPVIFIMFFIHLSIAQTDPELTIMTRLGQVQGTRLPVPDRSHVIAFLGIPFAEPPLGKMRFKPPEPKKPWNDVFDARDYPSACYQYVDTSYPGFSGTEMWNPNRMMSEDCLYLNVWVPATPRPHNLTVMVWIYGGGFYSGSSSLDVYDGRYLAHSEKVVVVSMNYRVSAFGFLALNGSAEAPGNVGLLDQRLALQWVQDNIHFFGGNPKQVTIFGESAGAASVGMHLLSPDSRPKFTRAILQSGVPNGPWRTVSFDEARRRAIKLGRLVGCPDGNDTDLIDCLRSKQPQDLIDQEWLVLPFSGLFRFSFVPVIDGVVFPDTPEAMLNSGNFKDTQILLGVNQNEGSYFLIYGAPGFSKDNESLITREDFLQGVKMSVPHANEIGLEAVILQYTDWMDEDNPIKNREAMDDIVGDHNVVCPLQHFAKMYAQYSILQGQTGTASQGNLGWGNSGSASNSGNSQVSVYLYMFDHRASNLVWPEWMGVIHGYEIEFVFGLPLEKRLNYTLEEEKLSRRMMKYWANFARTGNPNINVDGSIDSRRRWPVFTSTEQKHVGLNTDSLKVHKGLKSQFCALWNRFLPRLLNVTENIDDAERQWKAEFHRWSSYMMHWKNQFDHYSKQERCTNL
Cholinesterase, sequence (P81908 whole entry): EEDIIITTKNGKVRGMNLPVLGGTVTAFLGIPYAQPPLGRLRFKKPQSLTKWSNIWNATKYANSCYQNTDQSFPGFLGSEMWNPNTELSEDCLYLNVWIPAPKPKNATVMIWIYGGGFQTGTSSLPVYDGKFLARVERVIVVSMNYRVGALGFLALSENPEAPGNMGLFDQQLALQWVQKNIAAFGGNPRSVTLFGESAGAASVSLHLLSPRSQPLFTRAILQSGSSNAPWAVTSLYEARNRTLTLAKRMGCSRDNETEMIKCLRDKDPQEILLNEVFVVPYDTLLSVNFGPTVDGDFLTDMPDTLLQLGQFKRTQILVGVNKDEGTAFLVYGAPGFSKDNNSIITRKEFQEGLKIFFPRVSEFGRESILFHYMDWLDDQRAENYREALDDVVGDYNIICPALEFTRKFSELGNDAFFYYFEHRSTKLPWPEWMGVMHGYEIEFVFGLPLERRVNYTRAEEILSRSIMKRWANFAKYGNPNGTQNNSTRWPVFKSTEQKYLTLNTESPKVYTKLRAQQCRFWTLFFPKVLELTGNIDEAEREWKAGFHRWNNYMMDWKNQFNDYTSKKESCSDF

| Structure (SMILES) | IC50 [1] [nM] | Ratio IC50 [2] | IC50 [3] [nM] | Ki [4] [nM] |
| --- | --- | --- | --- | --- |
| COc1ccc2cc3[n+](cc2c1OCCCCCCOn1nnc2ccccc21)CCc1cc2c(cc1-3)OCO2 | 515 | 5.5 |  |  |
| COc1ccc2cc3[n+](cc2c1OCCOn1nnc2ccccc21)CCc1cc2c(cc1-3)OCO2 | 375 |  |  |  |
| COc1ccc2cc3[n+](cc2c1OCCCCCCOc1cccc2[nH]c4ccccc4c12)CCc1cc2c(cc1-3)OCO2 | 2100 |  |  |  |
| COc1ccc2cc3[n+](cc2c1OCCCCOn1nnc2ccccc21)CCc1cc2c(cc1-3)OCO2 | 224 | 18.6 | 4170 |  |
| COc1ccc2cc3[n+](cc2c1OCCCCOc1cccc2[nH]c4ccccc4c12)CCc1cc2c(cc1-3)OCO2 | 856 |  |  |  |
| COc1ccc2cc3[n+](cc2c1OC)CCc1cc2c(cc1-3)OCO2 [BERBERINE CHLORIDE] | 374 |  |  | 289 |
| COc1ccc2cc3[n+](cc2c1OCCCCCCOc1ccccc1)CCc1cc2c(cc1-3)OCO2 | 520 |  |  |  |
| COc1ccc2cc3[n+](cc2c1OCCCCCOc1ccccc1)CCc1cc2c(cc1-3)OCO2 | 398 |  |  |  |
| COc1ccc2cc3[n+](cc2c1OCCCCCOc1cccc2[nH]c4ccccc4c12)CCc1cc2c(cc1-3)OCO2 | 1680 |  |  |  |
| COc1ccc2cc3[n+](cc2c1OCCOc1ccccc1)CCc1cc2c(cc1-3)OCO2 | 224 |  |  |  |
| COc1ccc2cc3[n+](cc2c1OCCCOc1ccccc1)CCc1cc2c(cc1-3)OCO2 | 123 |  |  |  |
| COc1ccc2cc3[n+](cc2c1OCCCOn1nnc2ccccc21)CCc1cc2c(cc1-3)OCO2 | 359 | 8 | 2890 |  |
| COc1ccc2cc3[n+](cc2c1OCCCCCOn1nnc2ccccc21)CCc1cc2c(cc1-3)OCO2 | 280 | 8.9 | 2490 |  |
| COc1ccc2cc3[n+](cc2c1OCCOc1cccc2[nH]c4ccccc4c12)CCc1cc2c(cc1-3)OCO2 | 1230 |  |  |  |
| COc1ccc2cc3[n+](cc2c1OCCCOc1cccc2[nH]c4ccccc4c12)CCc1cc2c(cc1-3)OCO2 | 1120 |  |  |  |
